# Values of other authors as cited in patent US20250042860A1, “Process for Chemical Synthesis of Ergothioneine and Methods of Use” (NANJING NUTRABUILDING BIO-TECH CO., LTD., priority 2022, published 2025).
# Settings: animals and humans, even at high doses
substance,measurement,value
ergothioneine,toxicity or adverse effects associated with ergothioneine administration,no toxicity or adverse effects
